Measured values published in patent US9617219B2, “Polymorphs of 3-difluoromethyl-1-methyl-1 H-pyrazole-4-carboxylic acid (9-dichloro-methylene-1,2,3,4-tetrahydro-1,4-methano-naphthalen-5-yl)-amide” (Syngenta Participations AG, priority 2014, dated 2017).

Tests used:
[1] = Competitive slurries of anhydrous Form 1 and hydrate in water/methanol mixtures, stable form determined by DSC; type: physicochemical; design: key to stable crystal form: A indicates the anhydrous form is the stable form; H indicates the hydrate is the stable form; U data was inconclusive
Description: DSC was carried out using a Mettler Toledo DSC 820 or DSC1. A sample loading of around 5 mg was used and this was heated from 40° C. to 250° C. at a rate of 10° C./minute on the DSC820 or from 25° C. to 250° C. at a rate of 10° C./minute on the DSC1. The lid of the DSC crucible was pierced to allow the escape of any gas formed during the heating of the sample. The thermodynamic stability of hydrated crystals depends not only on temperature but also on the abundance of water, or more precisely, the water activity (aw), which is equivalent to the relative humidity. In order to determine under which conditions the anhydrous polymorph Form 1 and the hydrate are stable, a series of competitive slurries containing both crystal forms were prepared in different water/methanol mixtures and at a range of temperatures. The resulting crystals were analysed by DSC to determine the stable form under the given conditions. […] From the data above, the water/methanol compositions were converted into water activities and a phase diagram was constructed.

[2] = Stability of suspension concentrate formulation of anhydrous Form 1 contaminated with 5% hydrated form, temperature cycling; type: physicochemical; details: SC of anhydrous Form 1 with 5% hydrated form, cycling 0° C. to 40° C. over 12 hours, after two weeks
Description: Two standard suspension concentrate (SC) formulations were separately prepared using the anhydrous Form 1 polymorph and the hydrated polymorph. The SC of the anhydrous Form 1 was contaminated with 5% of the hydrated form and placed in a temperature cycling oven varying from 0° C. to 40° C. over 12 hours. After two weeks, the sample was inspected. […] Some crystals were removed from the formulation and dried.

Cn1cc(C(=O)Nc2cccc3c2C2CCC3C2=C(Cl)Cl)c(C(F)F)n1 (racemic) [compound of formula (I), 3-difluoromethyl-1-methyl-1H-pyrazole-4-carboxylic acid (9-dichloromethylene-1,2,3,4-tetrahydro-1,4-methano-naphthalen-5-yl)-amide]
U: stable crystal form ([1]; 10% water in methanol, 20 °C) | stable crystal form ([1]; 10% water in methanol, 30 °C)
A: stable crystal form ([1]; 1% water in methanol, 5 °C) | stable crystal form ([1]; 1% water in methanol, 20 °C) | stable crystal form ([1]; 1% water in methanol, 35 °C) | stable crystal form ([1]; 1% water in methanol, 40 °C) | stable crystal form ([1]; 1% water in methanol, 45 °C) | stable crystal form ([1]; 1% water in methanol, 60 °C) | stable crystal form ([1]; 5% water in methanol, 5 °C) | stable crystal form ([1]; 5% water in methanol, 20 °C) | stable crystal form ([1]; 5% water in methanol, 35 °C) | stable crystal form ([1]; 5% water in methanol, 40 °C) | stable crystal form ([1]; 5% water in methanol, 45 °C) | stable crystal form ([1]; 5% water in methanol, 60 °C) | stable crystal form ([1]; 10% water in methanol, 35 °C) | stable crystal form ([1]; 10% water in methanol, 40 °C) | stable crystal form ([1]; 10% water in methanol, 45 °C) | stable crystal form ([1]; 10% water in methanol, 60 °C) | stable crystal form ([1]; 15% water in methanol, 60 °C)
H: stable crystal form ([1]; 7.5% water in methanol, 5 °C) | stable crystal form ([1]; 7.5% water in methanol, 15 °C) | stable crystal form ([1]; 10% water in methanol, 5 °C) | stable crystal form ([1]; 10% water in methanol, 15 °C) | stable crystal form ([1]; 12.5% water in methanol, 5 °C) | stable crystal form ([1]; 15% water in methanol, 5 °C) | stable crystal form ([1]; 15% water in methanol, 15 °C) | stable crystal form ([1]; 15% water in methanol, 50 °C) | stable crystal form ([1]; 20% water in methanol, 20 °C) | stable crystal form ([1]; 20% water in methanol, 30 °C) | stable crystal form ([1]; 20% water in methanol, 35 °C) | stable crystal form ([1]; 20% water in methanol, 40 °C) | stable crystal form ([1]; 20% water in methanol, 45 °C) | stable crystal form ([1]; 20% water in methanol, 60 °C) | stable crystal form ([1]; 25% water in methanol, 50 °C) | stable crystal form ([1]; 25% water in methanol, 60 °C) | stable crystal form ([1]; 35% water in methanol, 60 °C)

Cn1cc(C(=O)Nc2cccc3c2C2CCC3C2=C(Cl)Cl)c(C(F)F)n1 (stereo not drawn) [hydrate of compound (I), 3-difluoromethyl-1-methyl-1H-pyrazole-4-carboxylic acid (9-dichloromethylene-1,2,3,4-tetrahydro-1,4-methano-naphthalen-5-yl)-amide]
> 60 °C: temperature required to dehydrate the hydrate ([1]; normal ambient relative humidities, from phase diagram (FIG. 3))

Cn1cc(C(=O)Nc2cccc3c2C2CCC3C2=C(Cl)Cl)c(C(F)F)n1 (stereo not drawn) [anhydrous polymorph Form 1, 3-difluoromethyl-1-methyl-1H-pyrazole-4-carboxylic acid (9-dichloromethylene-1,2,3,4-tetrahydro-1,4-methano-naphthalen-5-yl)-amide]
increased substantially: size of the crystals (microscopy) [2]
fully converted to the hydrated form: polymorphic conversion (powder X-ray diffraction) [2]
